Source: US11702418B2, “SOS1 inhibitors” (priority 2019, dated 2023)
Read-outs that look alike come from different tables or passages of the source.

Columns and labels:
[1] = target: recombinant human SOS1 polypeptide (amino acids 560-1049) (Homo sapiens (Human), UniProt Q07889); assay: biochemical; format: binding
[2] = tested on: pERK in MKN1 cells; assay: cells; format: cell-based; conditions: Homo sapiens, MKN-1, pERK inhibition, In-Cell Western, MKN1 or H358 cells (Table 24 does not say which), 0.5-1 hour incubation
[3] = HTRF displacement, Cy5 labelled tracer, Morrison equation for competitive binding, read-out: Ki, Inhibition of Labeled Tracer Binding to SOS1
[4] = read-out: Ki, Inhibition of Labeled Tracer Binding to SOS1

Chain of recombinant human SOS1 polypeptide (amino acids 560-1049) (Q07889 560-1049): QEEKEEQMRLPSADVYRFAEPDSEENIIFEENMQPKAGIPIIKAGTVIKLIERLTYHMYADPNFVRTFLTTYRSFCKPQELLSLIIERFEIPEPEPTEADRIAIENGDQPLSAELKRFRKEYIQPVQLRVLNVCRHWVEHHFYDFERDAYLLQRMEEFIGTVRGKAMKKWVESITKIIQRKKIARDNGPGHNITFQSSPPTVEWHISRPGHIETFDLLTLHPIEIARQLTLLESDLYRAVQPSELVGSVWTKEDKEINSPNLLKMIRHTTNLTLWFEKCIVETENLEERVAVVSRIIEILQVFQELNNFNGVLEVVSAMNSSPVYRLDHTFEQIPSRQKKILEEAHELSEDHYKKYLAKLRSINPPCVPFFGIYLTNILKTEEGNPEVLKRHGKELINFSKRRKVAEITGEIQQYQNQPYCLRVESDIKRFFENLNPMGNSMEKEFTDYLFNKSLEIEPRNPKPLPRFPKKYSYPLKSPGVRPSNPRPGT

SMILES	Ki [1, 3]	IC50 ([2]; read-out: IC50)	Ki [1]	IC50 [2]	Ki [1, 4]
CNCc1nnc(N[C@H](C)c2cccc(C(F)(F)F)c2C)c2cc(N3C[C@H]4C[C@@H]3CO4)ncc12 [Example 14-5, 7-((1R,4R)-2-oxa-5-azabicyclo[2.2.1]heptan-5-yl)-N-((R)-1-(2-methyl-3-(trifluoromethyl)phenyl)ethyl)-4-((methylamino)methyl)pyrido[3,4-d]pyridazin-1-amine]	2.54 nM	70 nM			
Cc1c([C@@H](C)Nc2nnc(CN(C)C)c3cnc(N4C[C@H]5C[C@@H]4CO5)cc23)cccc1C(F)(F)F [Example 14-6, 7-((1R,4R)-2-oxa-5-azabicyclo[2.2.1]heptan-5-yl)-4-((dimethylamino)methyl)-N-((R)-1-(2-methyl-3-(trifluoromethyl)phenyl)ethyl)pyrido[3,4-d]pyridazin-1-amine]	2.56 nM	142 nM			
Cc1nnc(N[C@H](C)c2cc(N)cc(C(F)(F)F)c2)c2cc(O[C@H]3CCOC3)ccc12 [Example 15-1, N—((R)-1-(3-amino-5-(trifluoromethyl)phenyl)ethyl)-4-methyl-7-(((S)-tetrahydrofuran-3-yl)oxy)phthalazin-1-amine]	3.37 nM	28 nM			
Cc1c([C@@H](C)Nc2nnc(C)c3ccc(N4CCOCC4)cc23)cc(N)cc1C(F)(F)F [Example 15-2, (R)—N-(1-(5-amino-2-methyl-3-(trifluoromethyl)phenyl)ethyl)-4-methyl-7-morpholinophthalazin-1-amine]			0.42 nM	8 nM	
Cc1c([C@@H](C)Nc2nnc(C)c3ccc(O[C@H]4CCOC4)cc23)cc(N)cc1C(F)(F)F [Example 15-3, N-((R)-1-(5-amino-2-methyl-3-(trifluoromethyl)phenyl)ethyl)-4-methyl-7-(((S)-tetrahydrofuran-3-yl)oxy)phthalazin-1-amine]	0.94 nM	34 nM			
Cc1nnc(N[C@H](C)c2cc(N)cc(C(F)(F)F)n2)c2cc(N3CCOCC3)ccc12 [Example 16-1, (R)—N-(1-(4-amino-6-(trifluoromethyl)pyridin-2-yl)ethyl)-4-methyl-7-morpholinophthalazin-1-amine]			14.4 nM	245 nM	
Cc1nnc(N[C@H](C)c2cc(N)cc(C(F)(F)F)n2)c2cc(N3CC4CC(C3)O4)ccc12 [Example 16-4, N-((R)-1-(4-amino-6-(trifluoromethyl)pyridin-2-yl)ethyl)-7-(6-oxa-3-azabicyclo[3.1.1]heptan-3-yl)-4-methylphthalazin-1-amine]	10.4 nM	371 nM			
Cc1nnc(N[C@H](C)c2cc(N)cc(C(F)(F)F)n2)c2cc(N3C[C@H]4CC[C@@H]3CN4C)ccc12 [Example 16-5, N-((R)-1-(4-amino-6-(trifluoromethyl)pyridin-2-yl)ethyl)-4-methyl-7-((1R, 4R)-5-methyl-2,5-diazabicyclo[2.2.2]octan-2-yl)phthalazin-1-amine]	5.5 nM	71 nM			
Cc1nnc(N[C@H](C)c2cc(N)cc(C(F)(F)F)n2)c2cc(N3C[C@H]4CC[C@@H]3CN4C)ncc12 [Example 16-6, N-((R)-1-(4-amino-6-(trifluoromethyl)pyridin-2-yl)ethyl)-4-methyl-7-((1R, 4R)-5-methyl-2,5-diazabicyclo[2.2.2]octan-2-yl)pyrido[3,4-d]pyridazin-1-amine]	6.5 nM	239 nM			
Cc1nnc(N[C@H](C)c2cc(N)cc(C(F)(F)F)n2)c2cc(N3CC4(CCN(C)C4=O)C3)ncc12 [Example 16-7, (R)-2-(1-((1-(4-amino-6-(trifluoromethyl)pyridin-2-yl)ethyl)amino)-4-methylpyrido[3,4-d]pyridazin-7-yl)-6-methyl-2,6-diazaspiro[3.4]octan-5-one]	78.8 nM	2900 nM			
Cc1nnc(N[C@H](C)c2cc(N)cc(C(F)(F)F)n2)c2cc(N3C[C@H]4C[C@@H]3CO4)ccc12 [Example 16-8, N-((R)-1-(4-amino-6-(trifluoromethyl)pyridin-2-yl)ethyl)-7-((1R, 4R)-2-oxa-5-azabicyclo[2.2.1]heptan-5-yl)-4-methylphthalazin-1-amine]	21.2 nM	93 nM			
Cc1nnc(N[C@H](C)c2cc(N)cc(C(F)(F)F)n2)c2cc(N3CC(C)(N(C)C)C3)ccc12 [Example 16-9, (R)-N-(1-(4-amino-6-(trifluoromethyl)pyridin-2-yl)ethyl)-7-(3-(dimethylamino)-3-methylazetidin-1-yl)-4-methylphthalazin-1-amine]	35.6 nM	643 nM			
Cc1nnc(N[C@H](C)c2cc(N)cc(C(F)(F)F)n2)c2cc(N3CC(C)(O)C3)ccc12 [Example 16-10, (R)-1-(4-((1-(4-amino-6-(trifluoromethyl)pyridin-2-yl)ethyl)amino)-1-methylphthalazin-6-yl)-3-methylazetidin-3-ol]	81 nM	919 nM			
Cc1nnc(N[C@H](C)c2cc(N)cc(C(F)(F)F)n2)c2cc(N3CC4CC(C3)O4)ncc12 [Example 16-13, N-((R)-1-(4-amino-6-(trifluoromethyl)pyridin-2-yl)ethyl)-7-(6-oxa-3-azabicyclo[3.1.1]heptan-3-yl)-4-methylpyrido[3,4-d]pyridazin-1-amine]	25.8 nM	> 10000 nM			
Cc1nnc(N[C@H](C)c2cc(N)c(F)c(C(F)(F)F)c2)c2cc(N3C[C@H]4C[C@@H]3CO4)ccc12 [Example 16-14, N-((R)-1-(3-amino-4-fluoro-5-(trifluoromethyl)phenyl)ethyl)-7-((1R,4R)-2-oxa-5-azabicyclo[2.2.1]heptan-5-yl)-4-methylphthalazin-1-amine]	1.71 nM	37 nM			
COc1c(C#N)cccc1[C@@H](C)Nc1nnc(C)c2cnc(N3CCOCC3)cc12 [Example 17-1, (R)-2-methoxy-3-(1-((4-methyl-7-morpholinopyrido[3,4-d]pyridazin-1-yl)amino)ethyl)benzonitrile]			4.33 nM	30 nM	
COc1c(C#N)cccc1[C@@H](C)Nc1nnc(C)c2cnc(N3CC(C)(O)C3)cc12 [Example 17-3, (R)-3-(1-((7-(3-hydroxy-3-methylazetidin-1-yl)-4-methylpyrido[3,4-d]pyridazin-1-yl)amino)ethyl)-2-methoxybenzonitrile]	12.8 nM	188 nM			
COc1c(C#N)cccc1[C@@H](C)Nc1nnc(C)c2ccc(N3CC(C)(O)C3)cc12 [Example 17-4, (R)-3-(1-((7-(3-hydroxy-3-methlazetidin-1-yl)-4-methylpyridazin-1-yl)amino)ethyl)-2-methoxybenzonitrile]	14.4 nM	116 nM			
Cc1c([C@@H](C)Nc2nnc(C)c3cc(F)c(N4CCNCC4)cc23)cccc1C(F)(F)F [Example 18-1, (R)-6-fluoro-4-methyl-N-(1-(2-methyl-3-(trifluoromethyl)phenyl)ethyl)-7-(piperazin-1-yl)phthalazin-1-amine]				128 nM	0.98 nM
Cc1c([C@@H](C)Nc2nnc(C)c3cc(F)c(N4CCOCC4)cc23)cccc1C(F)(F)F [Example 18-2, (R)-6-fluoro-4-methyl-N-(1-(2-methyl-3-(trifluoromethyl)phenyl)ethyl)-7-morpholinophthalazin-1-amine]				380 nM	5.27 nM
Cc1c(C#N)cccc1[C@@H](C)Nc1nnc(C)c2cc(F)c(N3CCNCC3)cc12 [Example 18-4, (R)-3-(1-((6-fluoro-4-methyl-7-(piperazin-1-yl)phthalazin-1-yl)amino)ethyl)-2-methylbenzonitrile]	1.64 nM	41 nM			
Cc1c(C#N)cccc1[C@@H](C)Nc1nnc(C)c2cc(C(F)(F)F)c(N3CC(C)(N(C)C)C3)cc12 [Example 19-1, (R)-3-(1-((7-(3-(dimethylamino)-3-methylazetidin-1-yl)-4-methyl-6-(trifluoromethyl)phthalazin-1-yl)amino)ethyl)-2-methylbenzonitrile]	6.16 nM	156 nM			
Cc1c(C#N)cccc1[C@@H](C)Nc1nnc(C)c2cc(C(F)(F)F)c(N3CC(C)(O)C3)cc12 [Example 19-3, (R)-3-(1-((7-(3-hydroxy-3-methylazetidin-1-yl)-4-methyl-6-(trifluoromethyl)phthalazin-1-yl)amino)ethyl)-2-methylbenzonitrile]	19.3 nM	114 nM			
Cc1nnc(N[C@H](C)c2cccc(C(F)(F)C(C)(C)O)c2F)c2cc(N3CCN4CCOC[C@@H]4C3)ncc12 [Example 20-2, 1,1-difluoro-1-(2-fluoro-3-((R)-1-((7-((S)-hexahydropyrazino[2,1-c][1,4]oxazin-8(1H)-yl)-4-methylpyrido[3,4-d]pyridazin-1-yl)amino)ethyl)phenyl)-2-methylpropan-2-ol]	0.75 nM	8 nM			
Cc1nnc(N[C@H](C)c2cccc(C(F)(F)C(C)(C)O)c2F)c2cc(N3CC4CC(C3)O4)ncc12 [Example 20-3, 1-(3-((1R)-1-((7-(6-oxa-3-azabicyclo[3.1.1]heptan-3-yl)-4-methylpyrido[3,4-d]pyridazin-1-yl)amino)ethyl)-2-fluorophenyl)-1,1-difluoro-2-methylpropan-2-ol]	0.92 nM	16 nM			
Cc1nnc(N[C@H](C)c2cc(O)cc(C(F)(F)F)c2)c2cc(N3CCOCC3)ncc12 [Example 21-1, (R)-3-(1-((4-methyl-7-morpholinopyrido[3,4-d]pyridazin-1-yl)amino)ethyl)-5-(trifluoromethyl)phenol]	2.93 nM	77 nM			
Cc1nnc(N[C@H](C)c2cc(O)cc(C(F)(F)F)c2)c2cc(N3CCOCC3)ccc12 [Example 21-2, (R)-3-(1-((4-methyl-7-morpholinophthalazin-1-yl)amino)ethyl)-5-(trifluoromethyl)phenol]			1.67 nM	137 nM	
Cc1cc(C#N)cc([C@@H](C)Nc2nnc(C)c3cnc(N4CCOCC4)cc23)c1 [Example 21-3, (R)-3-methyl-5-(1-((4-methyl-7-morpholinopyrido[3,4-d]pyridazin-1-yl)amino)ethyl)benzonitrile]				221 nM	14.4 nM
